pIC50: −log10 of the molar value.
Columns and labels:
[1] = target: T1, Prostaglandin G/H synthase 2 (Homo sapiens, UniProt P35354); test: Inhibition of COX2 (unknown origin)
T1 sequence (P35354 whole entry): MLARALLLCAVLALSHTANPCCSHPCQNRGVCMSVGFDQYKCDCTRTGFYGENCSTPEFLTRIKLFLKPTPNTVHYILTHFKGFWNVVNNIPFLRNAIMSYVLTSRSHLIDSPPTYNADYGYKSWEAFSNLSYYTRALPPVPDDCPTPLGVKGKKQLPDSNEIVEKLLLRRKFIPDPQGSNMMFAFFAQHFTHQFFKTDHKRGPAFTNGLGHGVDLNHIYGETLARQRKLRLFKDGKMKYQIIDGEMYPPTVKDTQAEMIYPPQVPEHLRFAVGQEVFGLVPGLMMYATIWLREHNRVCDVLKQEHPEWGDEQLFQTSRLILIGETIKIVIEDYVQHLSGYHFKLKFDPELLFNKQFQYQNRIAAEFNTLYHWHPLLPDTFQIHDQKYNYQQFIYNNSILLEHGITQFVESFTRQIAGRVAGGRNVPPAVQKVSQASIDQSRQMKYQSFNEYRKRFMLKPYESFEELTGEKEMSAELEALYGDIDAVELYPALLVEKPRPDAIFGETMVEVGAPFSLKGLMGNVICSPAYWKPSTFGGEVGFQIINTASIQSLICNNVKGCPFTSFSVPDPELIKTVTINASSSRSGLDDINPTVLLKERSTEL

[2] = target: Prostaglandin G/H synthase 1 (Homo sapiens, UniProt P23219); test: Inhibition of COX1 (unknown origin)
Chain of Prostaglandin G/H synthase 1 (P23219 whole entry): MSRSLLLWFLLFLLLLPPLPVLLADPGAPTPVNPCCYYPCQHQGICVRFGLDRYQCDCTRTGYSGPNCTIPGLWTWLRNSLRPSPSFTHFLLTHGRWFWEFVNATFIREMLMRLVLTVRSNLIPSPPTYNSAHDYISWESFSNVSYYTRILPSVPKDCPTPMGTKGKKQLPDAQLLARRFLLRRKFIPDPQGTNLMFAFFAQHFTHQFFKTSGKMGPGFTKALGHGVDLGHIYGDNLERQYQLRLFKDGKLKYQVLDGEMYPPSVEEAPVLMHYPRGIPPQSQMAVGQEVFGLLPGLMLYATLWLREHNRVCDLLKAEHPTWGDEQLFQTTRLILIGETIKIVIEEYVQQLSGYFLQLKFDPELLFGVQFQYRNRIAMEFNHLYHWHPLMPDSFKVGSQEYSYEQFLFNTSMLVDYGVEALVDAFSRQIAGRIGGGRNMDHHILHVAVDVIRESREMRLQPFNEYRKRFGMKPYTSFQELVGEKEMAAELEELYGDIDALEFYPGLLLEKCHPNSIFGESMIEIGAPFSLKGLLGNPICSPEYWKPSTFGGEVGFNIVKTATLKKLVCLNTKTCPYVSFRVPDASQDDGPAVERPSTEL

| Structure (SMILES) | pIC50 [1] | pIC50 [2] |
| --- | --- | --- |
| CC1(C)CC(c2ccccc2)C(CN2CCC(c3noc4cc(F)ccc34)CC2)=NO1 (stereo not given) | 4.98 | 4.40 |
| Fc1ccc2c(C3CCN(CC4=NO[C@@H]5CCCC[C@@H]5[C@H]4c4ccccc4)CC3)noc2c1 | 5.33 | 4.37 |
| CC1(C)CC(c2ccccc2)C(CN2CCN(c3cccc(Cl)c3Cl)CC2)=NO1 (stereo not given) | 5.17 | 4.26 |
| c1ccc([C@H]2C(Cn3c4ccccc4c4ccccc43)=NO[C@@H]3CCCC[C@H]23)cc1 | 5.00 | 4.22 |
| COc1ccc([C@H]2C(Cn3c4ccccc4c4ccccc43)=NO[C@@H]3CCCC[C@H]23)cc1 | 5.23 | 4.29 |

Now those with a higher pIC50 [1], led by results:

| pIC50 [1] | pIC50 [2] | Structure (SMILES) |
| --- | --- | --- |
| 5.77 | 4.39 | COc1ccc([C@H]2C(CN3CCN(c4ccc(OC)cc4)CC3)=NO[C@@H]3CCCC[C@H]23)cc1 |
| 5.59 | 4.30 | COc1ccc(N2CCN(CC3=NOC(C)(C)CC3c3ccccc3)CC2)cc1 (stereo not given) |
| 5.74 | 4.45 | COc1ccc(N2CCN(CC3=NO[C@@H]4CCCC[C@@H]4[C@H]3c3ccccc3)CC2)cc1 |
| 5.39 | 4.40 | CC1(C)CC(c2ccc(Cl)cc2)C(CN2CCC(c3noc4cc(F)ccc34)CC2)=NO1 (stereo not given) |
| 5.41 | 4.39 | CC1(C)CC(c2ccc(Cl)cc2)C(Cn2c3ccccc3c3ccccc32)=NO1 (stereo not given) |
